Test results from patent publication US20070142298A1, “Tetrapeptide regulating blood glucose level in diabetes mellitus” (SANKT-PETERBURGSKAYA OBSCHESTVENNAYA ORGANIZATSIYA …, priority 2003, published 2007).
Residues, ends and D or L forms follow the SMILES beside them.

Tests used:
Assay type in all cases: in vivo
[1] = tested on: rats with alloxan diabetes; assay: Course of alloxan diabetes in rats, prophylaxis and treatment variant (Example 3)
Experimental: The experiment was carried out on 15 white mongrel male rats with the average body weight 375±35 g. The animals were divided randomly into 2 groups. Control animals were administered once a day intravenously with 0.3 ml of 0.9% NaCl solution, while the main group animals were administered with LysGlu-Asp-Trp-NH2 tetrapeptide in dose of 3 μg (in 0.3 ml of 0.9% NaCl solution) per rat during 7 days. After that all the animals were subject to single intravenous administration of 1 ml of alloxan solution (“Spofa”) in dose 35 mg/kg. Lys-Glu-Asp-Trp-NH2 tetrapeptide had been administered during 3 days following alloxan administration. After that […] were subject to the second Lys-Glu-Asp-Trp-NH2 tetrapeptide course from 18 day till day 28 (total 11 days) in the same dose.

[2] = tested on: patients with diabetes mellitus; assay: Clinical application in patients with diabetes mellitus (Example 8)
Experimental: The investigation was carried out in 36 patients aged from 16 to 83 years (7 men, 29 women). In 23 patients there was diagnosed type 1 diabetes, in 13 patients—type 2 diabetes. The disease duration varied from 1 year to 30 years. 32 patients received insulin. The majority of the patients suffering diabetes mellitus entered the hospital decompensated. Blood glucose level in these patients on an empty stomach oscillated from […]; the glycosylated haemoglobin—from 7.8 to 12.7%. All the patients were prescribed a rigid diet. All the patients were stratified randomly into 2 groups, with respect to age, sex, duration and stage of the disease (Table 7). Alongside with standard method of treatment 16 patients were prescribed Lys-Glu-Asp-Trp-NH2 tetrapeptide in dose of 10 μg (in 1 ml of 0.9% NaCl solution) intramuscularly once a day for 10 days. 4 patients suffering type 2 diabetes mellitus were prescribed together with standard treatment course Lys-Glu-Asp-Trp-NH2 tetrapeptide in dose of 100 μg (1 tablet) twice a day before meals during 10 days. Patients of the control group were administered with 1 ml of 0.9% of NaCl solution as a placebo following the same scheme.

[3] = tested on: rats with alloxan diabetes; assay: Course of alloxan diabetes in rats, treatment variant (Example 2)
Experimental: After estimation of glucose concentration in the blood all the animals were divided at random into 2 groups. Then all the animals were exposed to single intravenous administration 1 ml of alloxan solution (“Spofa”) in dose 35 mg/kg. In 15 days control animals were administered once a day intraperitoneally with 0.3 ml 0.9% NaCl solution, rats of the main group were administered with LysGlu-Asp-Trp-NH2 in dose 3 μg (in 0.3 ml of 0.9% NaCl solution) per rat during 11 days.

[4] = tested on: rats with alloxan diabetes; assay: Insulin level in blood of rats with alloxan diabetes (Example 5)
Experimental: The experiment was held on 18 white mongrel male rats weighing on average 375±35 g. After the estimation of the blood glucose level all the animals were divided at random into 2 groups. Then all the animals were subjected to single intravenous injection with 1 ml of alloxan solution (“Spofa”) in dose of 35 mg/kg. 15 days later control animals were daily intraperitonealy administered with 0.3 ml of 0.9% NaCl solution, rats of the main group—with tetrapeptide Lys-Glu-Asp-Trp-NH2 in dose of 3 μg (in 0.3 ml of 0.9% NaCl) per rat during 11 days.

[5] = tested on: rats with alloxan diabetes; assay: Insulin effect on blood glucose level in alloxan diabetes rats after tetrapeptide (Example 7)
Experimental: The study was conducted on 13 male rats, enrolled in the previous trial (treatment variant—28 days after completion of Lys-Glu-Asp-Trp-NH2 tetrapeptide administration). 8 healthy rats of the similar body weight constituted a separate group. All the animals were administered intravenously with insulin (0.3 units), and glucose concentration in their blood was estimated hereafter.

[6] = tested on: rats with alloxan diabetes; assay: Glucose tolerance test (sugar curve) in alloxan diabetes rats (Example 6); details: 44th day after course completion
Experimental: The study was conducted on 13 male rats, enrolled in the previous tests (treatment variants—44 days after completion of tetrapeptide Lys-Glu-Asp-Trp-NH2 administration). 7 healthy rats with the same body weight constituted a separate group. All the animals were administered intravenously with 1 ml of 2% glucose solution, after that glucose concentration in their blood was estimated.

[7] = tested on: rats with alloxan diabetes; assay: Tetrapeptide in different doses on the course of alloxan diabetes in rats (Example 4); details: for Glucose concentration in blood, initial level: before alloxan; for Glucose concentration in blood, after tetrapeptide administration, day 1 / Glucose concentration in blood, after tetrapeptide administration, day 4 / Glucose concentration in blood, after tetrapeptide administration, day 7 / Glucose concentration in blood, after tetrapeptide administration, day 14 / Glucose concentration in blood, after tetrapeptide administration, day 21: 7 days; for Decrease of glucose level: dose 10 μg
Experimental: The study was performed on 23 white mongrel male rats weighing on average […]. All the animals were subject to single intravenous administration of 1 ml of alloxan (“Spofa”) solution in dose of […].
Then the animals were divided at random into 3 groups. Control animals were intraperitoneally administered with 0.3 ml of 0.9% NaCl solution once a day. Rats of the second and third group were administered with tetrapeptide Lys-Glu-Asp-Trp-NH2 in dose of 1 μg (in 0.1 ml of 0.9% NaCl solution) and 10 μg (in 1.0 ml of 0.9% NaCl solution) per rat during 7 days.

[8] = 16 insulin-treated patients, 10 μg i.m. once a day, 10 days
[9] = 3 μg per rat i.p. daily, 11 days
[10] = before alloxan and before treatment

NCCCC[C@H](N)C(=O)N[C@@H](CCC(=O)O)C(=O)N[C@@H](CC(=O)O)C(=O)N[C@@H](Cc1c[nH]c2ccccc12)C(N)=O [Tetrapeptide Lys-Glu-Asp-Trp-NH2, lysyl-glutamyl-aspartyl-tryptophane amid] (H-KEDW-NH2)
Glucose concentration in blood, after alloxan administration, day 28 ([1]; 2nd course (from 18th till 28th day)): 77.3 ± 1.3 mg %
Blood glucose level after the second course ([1]; 28th, 33rd, 40th day): complete normalisation of the blood glucose level
Glucose concentration in blood, after alloxan administration, day 5 ([1]; after 1st course): 247.3 ± 17.2 mg %
Glucose concentration in blood, after alloxan administration, day 14 ([1]; after 1st course): 261.5 ± 39.5 mg %
Glucose concentration in blood, after alloxan administration, day 33 ([1]; after 2nd course): 90.7 ± 5.2 mg %
Glucose concentration in blood, after alloxan administration, day 40 ([1]; after 2nd course): 107.7 ± 6.4 mg %
Glucose concentration in blood, initial level ([1]; before treatment): 76.8 ± 1.1 mg %
Glucose concentration in blood, after alloxan administration, day 21 ([1]; during 2nd course (from 18th till 28th day)): 159.0 ± 32.6 mg %
Glucose concentration in blood, 7 days from the onset of tetrapeptide administration (1 course) ([1]; healthy rats before alloxan, 3 μg per rat daily): 94.0 ± 0.8 mg %
Effect on blood glucose level of healthy animals ([1]; healthy rats, 7 days, before alloxan): did not lead to the decrease of blood glucose level
Reduction of the insulin daily dose, on average ([2]; 8 patients out of 16 treated with insulin): 8 units
Decreased insulin dose necessary to achieve compensation (number of patients) [2, 8]: 8
Increased insulin dose necessary to achieve compensation (number of patients) [2, 8]: 2
The same insulin dose necessary to achieve compensation (number of patients) [2, 8]: 6
Decrease of daily insulin dose as compared to the initial level ([2]; Patient K.): 26 units
Coagulogram indices ([2]; Patient K., at discharge): pronounced improvement in coagulogram indices
Blood glucose level on an empty stomach at discharge ([2]; Patient K., type 2, 10 μg i.m. 10 days, 18th day, 10 μmol/l on admission): 5.9 mM
Daily dose of insulin at discharge ([2]; Patient K., 82 units on admission): 56 units
Blood glucose level after completion of the treatment course ([2]; Patient L.): remained within the norm
Dose of diabeton ([2]; Patient L.): reduced two-fold
Glucose level on an empty stomach on the second day ([2]; Patient L., type 2, oral 100 μg twice a day with 2 diabeton tablets, 11 μmol/l on admission): 6 mM
Decrease of daily insulin dose as compared to the initial level ([2]; Patient M.): 8 units
Daily norm of insulin at discharge ([2]; Patient M., 40 units on admission): 32 units
Compensation in patients treated with oral anti-diabetic medicine ([2]; tetrapeptide in tablets): full compensation
Reduction of the dose of insulin ([2]; tetrapeptide in tablets, 100 μg twice a day, 10 days): 25 units
Reduction of dose of oral anti-diabetic preparations ([2]; tetrapeptide in tablets, patients on oral anti-diabetic medicine): reduced practically two-fold
Glucose concentration in the blood, 8 days since the onset of tetrapeptide administration [3, 9]: 254.5 ± 16.2 mg %
Glucose concentration in the blood, upon completion of peptide administration, day 1 [3, 9]: 222.5 ± 10.3 mg %
Glucose concentration in the blood, upon completion of peptide administration, day 9 [3, 9]: 183.9 ± 10.5 mg %
Glucose concentration in the blood, upon completion of peptide administration, day 18 [3, 9]: 236.7 ± 10.3 mg %
Glucose concentration in the blood, upon completion of peptide administration, day 28 [3, 9]: 221.5 ± 11.2 mg %
Glucose concentration in the blood, upon completion of peptide administration, day 44 [3, 9]: 210.8 ± 9.3 mg %
Glucose concentration in the blood, upon completion of peptide administration, day 58 [3, 9]: 198.9 mg %
Glucose concentration in the blood, initial level [3, 10]: 81.1 ± 3.8 mg %
Glucose concentration in the blood, 15 days after alloxan administration ([3]; before start of tetrapeptide): 333.6 ± 12.4 mg %
Lethality decrease ([3]; vs control, alloxan diabetes animals): two-fold lethality decrease
Decrease of the blood glucose level throughout the whole study ([3]; vs control, range 30-47.7%): 38.4%
Insulin content in blood, 8 days since the onset of tetrapeptide administration [4, 9]: 3.1 ± 1.1 mkIU/ml
Insulin content in blood, after the completion of tetrapeptide administration, day 1 [4, 9]: 3.6 ± 0.7 mkIU/ml
Insulin content in blood, after the completion of tetrapeptide administration, day 9 [4, 9]: 3.2 ± 0.5 mkIU/ml
Insulin content in blood, after the completion of tetrapeptide administration, day 18 [4, 9]: 4.3 ± 0.5 mkIU/ml
Insulin content in blood, after the completion of tetrapeptide administration, day 28 [4, 9]: 4.1 ± 0.6 mkIU/ml
Insulin content in blood, after the completion of tetrapeptide administration, day 44 [4, 9]: 3.9 ± 1.1 mkIU/ml
Insulin content in the blood relative to control group ([4]; 8 days of administration, higher than control): 3.9 fold
Amount of insulin in the blood at following estimations ([4]; after course completion, no insulin in controls): 13-18%
Insulin content in blood, initial level [4, 10]: 23.8 ± 2.8 mkIU/ml
Insulin content in blood, 15 days after alloxan administration ([4]; before start of tetrapeptide): 1.5 ± 0.4 mkIU/ml
Glucose concentration in blood, initial level ([5]; 28th day after course completion, before insulin): 221.5 ± 11.2 mg %
Glucose concentration in blood, 30 minutes after insulin administration ([5]; 28th day after course completion, insulin 0.3 units i.v.): 123.6 ± 8.3 mg %
Decrease of the glucose level after insulin administration as compared to the control group ([5]; alloxan diabetes animals): nearly two-fold decrease of the glucose level
Glucose tolerance test, 5 min after glucose administration [6]: 301.2 ± 10.5
Glucose tolerance test, 30 min after glucose administration [6]: 205.1 ± 11.8
Glucose tolerance test, 60 min after glucose administration [6]: 201.5 ± 13.2
Glucose tolerance test, 120 min after glucose administration [6]: 164.2 ± 12.8
Glucose tolerance test, initial level ([6]; before i.v. 1 ml of 2% glucose): 210.8 ± 9.3
Glucose concentration in blood, after alloxan administration, day 7 ([7]; 1 mkg group): 245.6 ± 12.3 mg %
Glucose concentration in blood, after alloxan administration, day 14 ([7]; 1 mkg group): 261.7 ± 12.3 mg %
Glucose concentration in blood, initial level ([7]; 1 mkg group): 80.6 ± 2.8 mg %
Glucose concentration in blood, after tetrapeptide administration, day 1 ([7]; 1 mkg per rat): 228.3 ± 10.7 mg %
Glucose concentration in blood, after tetrapeptide administration, day 4 ([7]; 1 mkg per rat): 244.4 ± 12.2 mg %
Glucose concentration in blood, after tetrapeptide administration, day 7 ([7]; 1 mkg per rat): 269.4 ± 8.6 mg %
Glucose concentration in blood, after tetrapeptide administration, day 14 ([7]; 1 mkg per rat): 268.8 ± 12.4 mg %
Glucose concentration in blood, after tetrapeptide administration, day 21 ([7]; 1 mkg per rat): 272.5 ± 9.9 mg %
Glucose concentration in blood, after alloxan administration, day 7 ([7]; 10 mkg group): 247.2 ± 14.0 mg %
Glucose concentration in blood, after alloxan administration, day 14 ([7]; 10 mkg group): 252.2 ± 7.9 mg %
Glucose concentration in blood, initial level ([7]; 10 mkg group): 83.9 ± 3.4 mg %
Glucose concentration in blood, after tetrapeptide administration, day 1 ([7]; 10 mkg per rat): 193.3 ± 6.7 mg %
Glucose concentration in blood, after tetrapeptide administration, day 4 ([7]; 10 mkg per rat): 212.2 ± 7.3 mg %
Glucose concentration in blood, after tetrapeptide administration, day 7 ([7]; 10 mkg per rat): 205.6 ± 8.4 mg %
Glucose concentration in blood, after tetrapeptide administration, day 14 ([7]; 10 mkg per rat): 240.0 ± 7.9 mg %
Glucose concentration in blood, after tetrapeptide administration, day 21 ([7]; 10 mkg per rat): 248.3 ± 13.5 mg %
Decrease of glucose level ([7]; day 1): 30%
Decrease of glucose level ([7]; day 7): 26%
